Test results taken from patent US11583516B2, “Dash inhibitors, and uses related thereto” (Trustees of Tufts College, priority 2016, dated 2023).
Where two headings read alike, the source gives them in different places.

What was measured:
CT26 cells = assay: CT26 cell viability; type: cell-based
G-CSF = assay: Serum cytokine induction in mice (G-CSF screen); type: in vivo, BALB/c mice
Source text: No. MKC00B) • IL-18 (R&D Systems, Cat. […] Systems, Cat. No. […])

[1] = Maximum tolerated dose study (single dose); type: in vivo, Sprague Dawley rats; conditions: with Pyrrophenone or AACOCF3, based on serum drug levels
Source text: Bars show the MTD single dose in SD rats prior to seeing animal death. […] See also FIG. 33 for a similar comparison using cPLA2 inhibitors instead of COX inhibitors.
Bars show the MTD single dose in SD rats prior to seeing animal death. Based on serum drug levels, the addition of a cPLA2 inhibitors to the I-DASH inhibitor increases that MTD dose by at least 20-fold.
Bars show the MTD single dose in SD rats prior to seeing animal death.

CT26 tumor = type: in vivo; conditions: CT26 model
RAW 264.7 WT cells = assay: Pyroptosis IC50 in cells; type: cell-based
MOLM-13 cells = assay: Cell line drug sensitivity (CellTiter-Glo); type: cell-based; conditions: MOLM-13, AML M5; 48 h; read-out: IC50
Method: (§1) SET-2, RS4;11, and SKM-1 cells were purchased from DSMZ. HL-60, MV4;11, OCI-AML2, NB4, MOLM-13, NOMO-1, DAOY, HEL, IMR-5, K562, Kasumi-1, ONS-76, RDES-1, and TC-71 cells were a gift from Alex Kentsis and verified using STR genotyping (Genetica). […] MCF-7, Jurkat, THP-1, U937, HL-60, MV4;11, OCI-AML2, NB4, MOLM-13, NOMO-1, HEL, K562, SET-2, RS4;11, SKM-1 and Kasumi-1 were grown in RPMI-1640 medium with 10% FBS. All cells were grown at 37° C. in a 5% CO2 incubator. Cell lines were tested for mycoplasma using the MycoAlert Mycoplasma Detection Kit (Lonza).
(§2) Cells were plated (2000 cells/well) in white, 384-well clear bottom plates using an EL406 Microplate Washer/Dispenser (BioTek) in 25 μL final volume of media. Compounds were added using a pintool (CyBio) and cells were incubated for 48 h at 37° C. Assay plates were then removed from the incubator and allowed to equilibrate to room temperature on the bench top before addition of 10 μL of CellTiter-Glo reagent (Promega) according to the manufacturer's instructions. Assay plates were shaken on an orbital shaker for 2 minutes and incubated at room temperature on the bench top for 10 minutes. Luminescence was then read using a Cytation 5 Cell Imaging Multi-Mode Reader (BioTek). (FIG. 6)

THP-1 cells = assay: Cell line drug sensitivity (CellTiter-Glo); type: cell-based; conditions: THP-1, AML M5; 48 h; read-out: IC50
Method: as §1, §2

HEL cells = assay: Cell line drug sensitivity (CellTiter-Glo); type: cell-based; conditions: AML/Erythroleukemis M6, 48 h, read-out: IC50
Method: as §1, §2

OCI-AML3 cells = assay: Cell line drug sensitivity (CellTiter-Glo); type: cell-based; conditions: OCI-AML3, AML M4; 48 h; read-out: IC50
Method: as §1, §2

ONS-76 cells = assay: Cell line drug sensitivity (CellTiter-Glo); type: cell-based; conditions: ONS-76, Medulloblastoma; 48 h; read-out: IC50
Method: as §1, §2

NOMO-1 cells = assay: Cell line drug sensitivity (CellTiter-Glo); type: cell-based; conditions: NOMO-1, AML M5; 48 h; read-out: IC50
Method: as §1, §2

SET-2 cells = assay: Cell line drug sensitivity (CellTiter-Glo); type: cell-based; conditions: SET-2, AML/MPN; 48 h; read-out: IC50
Method: as §1, §2

U937 cells = assay: Cell line drug sensitivity (CellTiter-Glo); type: cell-based; conditions: U937, AML/histiocytic lymphoma M5; 48 h; read-out: IC50
Method: as §1, §2

MCF7 cells = assay: Cell line drug sensitivity (CellTiter-Glo); type: cell-based; conditions: MCF7, Breast; 48 h; read-out: IC50
Method: as §1, §2

Kasumi-1 cells = assay: Cell line drug sensitivity (CellTiter-Glo); type: cell-based; conditions: Kasumi-1, AML M2; 48 h; read-out: IC50
Method: as §1, §2

RDES-1 cells = assay: Cell line drug sensitivity (CellTiter-Glo); type: cell-based; conditions: RDES-1, Ewing's sarcoma; 48 h; read-out: IC50
Method: as §1, §2

Jurkat cells = assay: Cell line drug sensitivity (CellTiter-Glo); type: cell-based; conditions: T-ALL, 48 h, read-out: IC50
Method: as §1, §2

K562 cells = assay: Cell line drug sensitivity (CellTiter-Glo); type: cell-based; conditions: K562, CML/Erythroleukemia; 48 h; read-out: IC50
Method: as §1, §2

SKM-1 cells = assay: Cell line drug sensitivity (CellTiter-Glo); type: cell-based; conditions: SKM-1, AML M5; 48 h; read-out: IC50
Method: as §1, §2

HL-60 cells = assay: Cell line drug sensitivity (CellTiter-Glo); type: cell-based; conditions: HL-60, AML M2; 48 h; read-out: IC50
Method: as §1, §2

HT-1080 cells = assay: Cell line drug sensitivity (CellTiter-Glo); type: cell-based; conditions: HT-1080, Fibrosarcoma; 48 h; read-out: IC50
Method: as §1, §2

TC-71 cells = assay: Cell line drug sensitivity (CellTiter-Glo); type: cell-based; conditions: TC-71, Ewing's sarcoma; 48 h; read-out: IC50
Method: as §1, §2

KG-1 cells = assay: Cell line drug sensitivity (CellTiter-Glo); type: cell-based; conditions: KG-1, AML M0; 48 h; read-out: IC50
Method: as §1, §2

IMR-5 cells = assay: Cell line drug sensitivity (CellTiter-Glo); type: cell-based; conditions: IMR-5, Neuroblastoma; 48 h; read-out: IC50
Method: as §1, §2

DAOY cells = assay: Cell line drug sensitivity (CellTiter-Glo); type: cell-based; conditions: DAOY, Medulloblastoma; 48 h; read-out: IC50
Method: as §1, §2

MV4;11 cells = assay: Cell line drug sensitivity (CellTiter-Glo); type: cell-based; conditions: MV4;11, AML M5; 48 h; read-out: IC50
AML cell lines = assay: AML cell line sensitivity, summary over the panel; type: cell-based; conditions: most of these AML cell lines
Method: as §1, §2

NB4 cells = assay: Cell line drug sensitivity (CellTiter-Glo); type: cell-based; conditions: NB4, AML/APL M3; 48 h; read-out: IC50
cancer = conditions: in the clinic; cited from earlier work
MV4;11 Luc-Neo = assay: Pyroptosis IC50 in cells; type: cell-based
MB49 tumor = assay: MB49 efficacy studies; type: in vivo, C57BL/6 mice
RS4;11 cells = assay: Cell line drug sensitivity (CellTiter-Glo); type: cell-based; conditions: RS4;11, AML/B-ALL; 48 h; read-out: IC50
THP-1 sgGFP = assay: Pyroptosis IC50 in cells; type: cell-based

With `CC(C)[C@H](N)C(=O)N1CCC[C@H]1B(O)O` [ARI-2054, Valine-boroProline] as the molecule, how does the EC50 (CT26 cells) read?
The EC50 was greater than 1000 µM.

And the “Average [G-CSF] at 6 hrs” value (G-CSF; 20 μg/animal PO)?
Its value is 55000 pg/mL.

What about the “Average [G-CSF] at 6 hrs” value (G-CSF; 20 μg/animal SC) of the same molecule?
Its value is 97000 pg/mL.

What about the “Increase of MTD dose by addition of a cPLA2 inhibitor” value [1] of the same molecule?
The value was “at least 20 fold”.

What about the “Inhibition of tumor growth (average)” value (CT26 tumor; 10 micrograms) of the same molecule?
Its value is “about 30%”.

And the “Inhibition of tumor growth (average)” value (CT26 tumor; 20 micrograms)?
Its value is roughly 80%.

What about the IC50 (RAW 264.7 WT cells) of the same molecule?
Its IC50 is 0.098 µM.

What about the IC50 (MOLM-13 cells) of the same molecule?
The IC50 was 0.12 µM.

And the IC50 (THP-1 cells)?
Its IC50 is 0.206 µM.

What about the IC50 (HEL cells) of the same molecule?
The IC50 was greater than 60 µM.

What about the IC50 (OCI-AML3 cells) of the same molecule?
Its IC50 is 0.08 µM.

And the IC50 (ONS-76 cells)?
Its IC50 is greater than 60 µM.

And the IC50 (NOMO-1 cells)?
The IC50 was 0.16 µM.

And the IC50 (SET-2 cells)?
The IC50 was 0.006 µM.

And the IC50 (U937 cells)?
The IC50 was greater than 60 µM.

What about the IC50 (MCF7 cells) of the same molecule?
The IC50 was greater than 60 µM.

What about the IC50 (Kasumi-1 cells) of the same molecule?
The IC50 was greater than 60 µM.

And the IC50 (RDES-1 cells)?
The IC50 was greater than 60 µM.

What about the IC50 (Jurkat cells) of the same molecule?
Its IC50 is greater than 60 µM.

And the IC50 (K562 cells)?
The IC50 was greater than 60 µM.

What about the IC50 (SKM-1 cells) of the same molecule?
Its IC50 is 0.044 µM.

What about the IC50 (HL-60 cells) of the same molecule?
Its IC50 is 0.115 µM.

What about the IC50 (HT-1080 cells) of the same molecule?
The IC50 was greater than 60 µM.

What about the IC50 (TC-71 cells) of the same molecule?
The IC50 was greater than 60 µM.

And the IC50 (KG-1 cells)?
Its IC50 is 0.02 µM.

What about the IC50 (IMR-5 cells) of the same molecule?
The IC50 was greater than 60 µM.

What about the IC50 (DAOY cells) of the same molecule?
The IC50 was greater than 60 µM.

What about the IC50 (MV4;11 cells) of the same molecule?
The IC50 was 0.078 µM.

What about the IC50 (AML cell lines) of the same molecule?
The IC50 was greater than 0.1 µM.

And the IC50 (NB4 cells)?
The IC50 was 0.1 µM.

What about the Clinical response (cancer) of the same molecule?
The Clinical response was “some partial and complete responses”.

And the Clinical toxicity (cancer)?
Its Clinical toxicity is “discontinued due to dose-limiting toxicity”.

What about the IC50 (MV4;11 Luc-Neo) of the same molecule?
The IC50 was 0.06 µM.

What about the “Tumor regression in combination with celecoxib” value (MB49 tumor; 20 microgram dose of Val-boroPro plus celecoxib) of the same molecule?
The value was “facilitated the achievement of tumor regression”.

And the “Antitumor activity in combination with celecoxib” value (MB49 tumor; Val-boroPro plus celecoxib)?
Its value is “increased the antitumor activity of Val-boroPro markedly (statistically significantly) and in a dose-dependent manner”.

And the IC50 (RS4;11 cells)?
The IC50 was 0.147 µM.

What about the IC50 (THP-1 sgGFP) of the same molecule?
Its IC50 is 0.168 µM.
